US10640495B2, “Heterocycle derivatives having TrkA inhibitory activity” (Shionogi & Co., Ltd., priority 2015, dated 2020)

target: human TrkA (Homo sapiens (Human), UniProt P04629); experiment: Human TrkA inhibition assay (Test Example 2); assay type: biochemical; conditions: Table 153, human TrkA inhibition; read-out: IC50
Method: Seven point five μL per well of human TrkA (PV3144, Lifetechnologies, final concentration: 1 nmol/L) suspended in the assay buffer (100 mmol/L 4-(2-hydroxyethyl)-1-piperazineethanesulfonic acid (HEPES), 10 mmol/L magnecium chloride, 0.003 vol % Brij-35, 0.004 vol % Tween20 and 1 mmol/L dithiothreitol (DTT)) was applied in a 384 well plate and the plate was pre-incubated for 15 min at room temperature with 0.4 μL of each compound (final concentration: 200 μmol/L-1 pmol/L) dissolved in DMSO. Then, fluorescent substrate (FL-peptide 27, 760424, PerkinElmer, final concentration: 1.5 μmol/L) and ATP (final concentration 500 μmol/L) dissolved in the assay buffer was added in each well. After the incubation of 120 min at 37° C., fifteen μL of termination buffer (100 mmol/L HEPES, 40 mmol/L ethylenediaminetetraacetic acid (EDTA), 10 mmol/L magnecium chloride, 0.003 vol % Brij-35, 0.004 vol % Tween20, 1 mmol/L DTT and 0.16 vol % Coating Reagent 3) was added in each well to stop the enzyme reaction. Fluorescent intensities (FI) of phosphorylated and non-phosphorylated fluorescent substrates were measured by LabChip EZReader II (Caliper LifeSciences, Inc.), and conversion ratio (CR) was calculated by the following formula-1. The CR in the well applied with DMSO alone was used as a negative control and the CR in the well without applying TrkA was used as a positive control. The inhibitory effect of each compound on TrkA phosphorylation was calculated by the following formula-2. CR (%)=(FI of phosphorylated substrate/(FI of phosphorylated substrate+FI of non-phosphorylated substrate))×100 (Formula-1) Phosphorylation inhibition (%)=(1−(CR with compound treatment−CR of positive control)/(CR of negative control−CR of positive control))×100 (Formula-2)
IC50 values (nmol/L) were determined by the logistic regression using the inhibition data in 10 points of 3-fold dilution series at a compound concentration range of 20 nmol/L to 1 pmol/L, or 10 points of 3-fold dilution series at the range of 2 μmol/L to 0.1 nmol/L, or 10 points of 3-fold dilution series at the range of 200 μmol/L to 10 nmol/L, or 15 points of 3-fold dilution series at the range of 200 μmol/L to 0.04 nmol/L.
The evaluation results of the compounds in the present invention are indicated as follows. IC50 values of 0 to 100 nM, 100 to 1000 nM and over 1000 nM were shown as “A”, “B” and “C”, respectively.

human TrkA, sequence (P04629 440-796): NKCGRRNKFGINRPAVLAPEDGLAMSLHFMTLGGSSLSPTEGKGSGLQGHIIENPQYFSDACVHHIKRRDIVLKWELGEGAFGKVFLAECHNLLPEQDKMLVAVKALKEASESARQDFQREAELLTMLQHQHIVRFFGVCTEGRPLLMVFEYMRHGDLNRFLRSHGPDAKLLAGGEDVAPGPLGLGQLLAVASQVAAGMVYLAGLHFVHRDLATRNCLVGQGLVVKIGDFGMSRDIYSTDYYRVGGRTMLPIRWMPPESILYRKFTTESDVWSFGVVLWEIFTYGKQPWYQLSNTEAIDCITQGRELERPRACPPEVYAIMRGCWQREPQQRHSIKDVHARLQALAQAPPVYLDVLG

IC50	Structure (SMILES)
< 100 nM	COCCN1C[C@@H](NC(=O)Nc2c(C)c(-c3cnn(C)c3)nn2-c2ccccc2)[C@H](c2ccnc(F)c2)O1 (racemic) [Compound I-91]
< 100 nM	CNc1ncc(-c2nn(-c3ccccc3)c(NC(=O)N[C@@H]3CN(CCOC)O[C@H]3c3ccnc(F)c3)c2C)cn1 (racemic) [Compound I-93]
> 1000 nM	COCCN1C[C@@H](NC(=O)Nc2cc(-c3cnc(OC)c(C(=O)NC4CCOCC4)c3)nn2C)[C@H](c2ccnc(F)c2)O1 (racemic) [Compound I-94]
> 1000 nM	CNC(=O)c1cc(-c2cc(NC(=O)N[C@@H]3CN(CCOC)O[C@H]3c3ccnc(F)c3)n(C)n2)cnc1OC (racemic) [Compound I-95]
< 100 nM	CNC(=O)c1cc(-c2nn(-c3ccccc3)c(NC(=O)N[C@@H]3CN(CCOC)O[C@H]3c3ccnc(F)c3)c2C)cnc1OC (racemic) [Compound I-100]
< 100 nM	COCCN1C[C@@H](NC(=O)Nc2c(C)c(-c3cnc(OC)c(C(N)=O)c3)nn2-c2ccccc2)[C@H](c2cnc(OC)c(F)c2)O1 (racemic) [Compound I-102]
< 100 nM	CNC(=O)c1cc(-c2nn(-c3ccccc3)c(NC(=O)N[C@@H]3CN(CCOC)O[C@H]3c3ccnc(F)c3)c2C)cn(C)c1=O (racemic) [Compound I-106]
< 100 nM	CCNC(=O)c1cc(-c2nn(-c3ccccc3)c(NC(=O)N[C@@H]3CN(CCOC)O[C@H]3c3ccnc(F)c3)c2C)cn(C)c1=O (racemic) [Compound I-107]
< 100 nM	COCCN1C[C@@H](NC(=O)Nc2c(C)c(-c3cnc(OC)c(C(N)=O)c3)nn2-c2ccccc2)[C@H](c2ccnc(F)c2)O1 (racemic) [Compound I-109]
< 100 nM	CCNC(=O)c1cc(-c2nn(-c3ccccc3)c(NC(=O)N[C@@H]3CN(CCOC)O[C@H]3c3ccnc(F)c3)c2C)cnc1OC (racemic) [Compound I-110]
< 100 nM	COCCN1C[C@@H](NC(=O)Nc2c(C)c(-c3cnc(OC)c(C(=O)NC4CCOCC4)c3)nn2-c2ccccc2)[C@H](c2ccnc(F)c2)O1 (racemic) [Compound I-111]
< 100 nM	COCCN1C[C@@H](NC(=O)Nc2c(C)c(-c3cnc(OC)c(C(=O)NC4CCS(=O)(=O)CC4)c3)nn2-c2ccccc2)[C@H](c2ccnc(F)c2)O1 (racemic) [Compound I-112]
< 100 nM	COCCN1C[C@@H](NC(=O)Nc2c(C)c(-c3cnc4c(c3)c(C)nn4C)nn2-c2ccccc2)[C@H](c2ccnc(F)c2)O1 (racemic) [Compound I-114]

The remaining lines, values behind:

Structure (SMILES)	IC50
COCCN1C[C@@H](NC(=O)Nc2c(C)c(-c3cnc4c(c3)ncn4C)nn2-c2ccccc2)[C@H](c2cnc(F)c(F)c2)O1 (racemic) [Compound I-69]	< 100 nM
COCCN1C[C@@H](NC(=O)Nc2c(C)c(-c3cnc(C4CC4)nc3)nn2-c2ccccc2)[C@H](c2cnc(F)c(F)c2)O1 (racemic) [Compound I-70]	< 100 nM
COCCN1C[C@@H](NC(=O)Nc2c(C)c(-c3cc(C)c(=O)n(C)c3)nn2-c2ccccc2)[C@H](c2cnc(F)c(F)c2)O1 (racemic) [Compound I-71]	< 100 nM
COCCN1C[C@@H](NC(=O)Nc2c(C)c(-c3cnc4c(c3)ncn4C)nn2-c2ccccc2)[C@H](c2ccc(F)c(F)c2)O1 (racemic) [Compound I-72]	< 100 nM
COCCN1C[C@@H](NC(=O)Nc2c(C)c(-c3cc(C(=O)NC4CCOCC4)c(=O)n(C)c3)nn2-c2ccccc2)[C@H](c2cnc(F)c(F)c2)O1 (racemic) [Compound I-74]	< 100 nM
CNC(=O)c1cc(-c2nn(-c3ccccc3)c(NC(=O)N[C@@H]3CN(CCOC)O[C@H]3c3cnc(F)c(F)c3)c2C)cn(C)c1=O (racemic) [Compound I-75]	< 100 nM
COCCN1C[C@@H](NC(=O)Nc2c(C)c(-c3ccnc(C(=O)OCc4ccccc4)c3)nn2-c2ccccc2)[C@H](c2ccc(F)c(F)c2)O1 (racemic) [Compound I-76]	< 100 nM
COCCN1C[C@@H](NC(=O)Nc2c(C)c(-c3ccnc(N=S(C)(C)=O)c3)nn2-c2ccccc2)[C@H](c2ccc(F)c(F)c2)O1 (racemic) [Compound I-77]	< 100 nM
COCCN1C[C@@H](NC(=O)Nc2c(C)c(-c3cnc4c(c3)nc(CO)n4C)nn2-c2ccccc2)[C@H](c2ccc(F)c(F)c2)O1 (racemic) [Compound I-78]	< 100 nM
COCCN1C[C@@H](NC(=O)Nc2c(C)c(-c3cc(COC(C)=O)c(=O)n(C)c3)nn2-c2ccccc2)[C@H](c2cnc(F)c(F)c2)O1 (racemic) [Compound I-80]	< 100 nM
COCCN1C[C@@H](NC(=O)Nc2c(C)c(-c3cc(CO)c(=O)n(C)c3)nn2-c2ccccc2)[C@H](c2cnc(F)c(F)c2)O1 (racemic) [Compound I-81]	< 100 nM
COCCN1C[C@@H](NC(=O)Nc2c(C)c(-c3cnc4c(c3)c(CO)nn4C)nn2-c2ccccc2)[C@H](c2cnc(F)c(F)c2)O1 (racemic) [Compound I-84]	< 100 nM
COCCN1C[C@@H](NC(=O)Nc2c(C)c(-c3cncc(N=S(C)(C)=O)c3)nn2-c2ccccc2)[C@H](c2ccc(F)c(F)c2)O1 (racemic) [Compound I-85]	< 100 nM
COCCN1C[C@@H](NC(=O)Nc2c(C)c(-c3cnn(C)c3)nn2-c2ccc(F)c(F)c2)[C@H](c2ccc(F)c(F)c2)O1 (racemic) [Compound I-86]	< 100 nM
COCCN1C[C@@H](NC(=O)Nc2c(C)c(-c3cnn(C)c3)nn2-c2ccc(F)cc2)[C@H](c2ccc(F)c(F)c2)O1 (racemic) [Compound I-87]	< 100 nM
COCCN1C[C@@H](NC(=O)Nc2c(C)c(-c3cnn(C)c3)nn2C2CC2)[C@H](c2ccc(F)c(F)c2)O1 (racemic) [Compound I-88]	> 1000 nM
COCCN1C[C@@H](NC(=O)Nc2c(C)c(-c3cccc(N=S(C)(C)=O)c3)nn2-c2ccccc2)[C@H](c2ccc(F)c(F)c2)O1 (racemic) [Compound I-89]	< 100 nM
COCCN1C[C@@H](NC(=O)Nc2c(C)c(-c3cnc(N=S(C)(C)=O)c(C)c3)nn2-c2ccccc2)[C@H](c2ccc(F)c(F)c2)O1 (racemic) [Compound I-92]	< 100 nM
COCC[C@@H]1C[C@@H](NC(=O)Nc2c(C)c(-c3cnc4c(cnn4C)c3)nn2-c2ccccc2)[C@H](c2ccnc(F)c2)O1 (racemic) [Compound I-97]	< 100 nM
COCC[C@@H]1C[C@@H](NC(=O)Nc2c(C)c(-c3cnc4c(cnn4C)c3)nn2-c2ccccc2)[C@H](c2ccc(F)c(F)c2)O1 (racemic) [Compound I-99]	< 100 nM
COCCN1C[C@@H](NC(=O)Nc2c(C)c(-c3cnc(OC)c(C(N)=O)c3)nn2-c2ccccc2)[C@H](c2cnc(F)c(F)c2)O1 (racemic) [Compound I-101]	< 100 nM
COCCN1C[C@@H](NC(=O)Nc2c(C)c(-c3cnc(OC)c(C(=O)NC4CCS(=O)(=O)CC4)c3)nn2-c2ccccc2)[C@H](c2cnc(F)c(F)c2)O1 (racemic) [Compound I-103]	< 100 nM
COCCN1C[C@@H](NC(=O)Nc2c(C)c(-c3cnc(OC)c(C(=O)NC4CCS(=O)(=O)CC4)c3)nn2-c2ccccc2)[C@H](c2cnc(OC)c(F)c2)O1 (racemic) [Compound I-104]	< 100 nM
COCCN1C[C@@H](NC(=O)Nc2c(C)c(-c3cc(C(N)=O)c(=O)n(C)c3)nn2-c2ccccc2)[C@H](c2ccnc(F)c2)O1 (racemic) [Compound I-105]	< 100 nM
COCCN1C[C@@H](NC(=O)Nc2c(C)c(-c3cnc(C4CC4)nc3)nn2-c2ccccc2)[C@H](c2ccnc(F)c2)O1 (racemic) [Compound I-115]	< 100 nM
COCCN1C[C@@H](NC(=O)Nc2c(C)c(-c3cnn(C)c3)nn2-c2ccccc2)[C@H](c2ccc(F)cc2)O1 (racemic) [Compound I-116]	< 100 nM

same assay, conditions: human TrkA 1 nmol/L, ATP 500 μmol/L, 120 min at 37° C.; read-out: IC50 values (TrkA phosphorylation inhibition)

IC50	Structure (SMILES)
1.2 nM	CNC(=O)c1cc(-c2nn(-c3ccccc3)c(NC(=O)N[C@@H]3CN(CCOC)O[C@H]3c3cnc(F)c(F)c3)c2C)cnc1OC (racemic) [Compound I-73]
1.5 nM	COCCN1C[C@@H](NC(=O)Nc2c(C)c(-c3cnc4c(c3)c(=O)n(C)n4C)nn2-c2ccccc2)[C@H](c2cnc(F)c(F)c2)O1 (racemic) [Compound I-79]
15 nM	COCC[C@@H]1C[C@@H](NC(=O)Nc2c(C)c(-c3cnc(C)nc3)nn2-c2ccccc2)[C@H](c2ccnc(F)c2)O1 (racemic) [Compound I-96]
1 nM	COCCN1C[C@@H](NC(=O)Nc2c(C)c(-c3cc(C(=O)NC4CCOCC4)c(=O)n(C)c3)nn2-c2ccccc2)[C@H](c2ccnc(F)c2)O1 (racemic) [Compound I-108]
